The text below walks through data of ChEMBL document CHEMBL5126655, “Koshidacins A and B, Antiplasmodial Cyclic Tetrapeptides from the Okinawan Fungus Pochonia boninensis FKR-0564” (J Nat Prod, 2022).

Data set [1] relates to Plasmodium falciparum. Nature of the data set: Antiplasmodial activity against Plasmodium falciparum K1 assessed as reduction in parasite growth incubated for 72 hr by LDH assay. Format: functional, organism-based. The conditions noted are these: K1, 72 h.
Data set [2] has as its system Plasmodium falciparum. Nature of the data set: Antiplasmodial activity against Plasmodium falciparum FCR3 assessed as reduction in parasite growth incubated for 72 hr by LDH assay. Format: functional, organism-based. The conditions noted are these: FCR3, 72 h.
The nature of data set [3]: Cytotoxicity against human MRC5 cells assessed as reduction in cell viability after 24 hrs by MTT assay. Format: toxicity, cell-based. In general terms: Formazan colour is commonly taken as a measure of viable cells.
A further data set relates to Plasmodium berghei. Description: Antiplasmodial activity against plasmodium berghei N strain infected in ICR(CD1) mouse assessed as inhibition of parasitemia at 30 mg/kg, ip administered for 3 days relative to control. Format: functional. Particulars: 72 h, time 3 day.
A short description of data set [4]: Selectivity index, ratio of CC50 for human MRC5 cells to IC50 for plasmodium falciparum K1. Format: toxicity. Particulars: read-out: Ratio CC50/IC50.
Data set [5] in a line: Selectivity index, ratio of CC50 for human MRC5 cells to IC50 for plasmodium falciparum FCR3. The conditions noted are these: read-out: Ratio CC50/IC50. Format: toxicity.
Data set [6] is described as follows: Inhibition of HDAC in Plasmodium falciparum infected in human erythrocytes incubated for 2 hr in presence of sodium [14C]acetate by radiometry assay. Format: cell-based. Particulars: Erythrocyte.

By IC50 is commonly meant the concentration that inhibits the measured activity by half. For orientation: CC50 means the concentration at which the toxic effect on the cells reaches its halfway point. By inhibition in vivo is commonly meant the percentage by which the read-out fell short of the control. For `CC1(C)NC(=O)[C@H](CCCCCC(=O)[C@@H](O)CO)NC(=O)[C@H]2CCCN2C(=O)[C@H](Cc2ccccc2)NC1=O`, the half-inhibitory concentration (IC50) in the data set with Plasmodium falciparum [1] was found to be 830 nM; with Plasmodium falciparum [2] it was 890 nM. In data set [3], the half-maximal cytotoxic concentration (CC50) at 24 h was found to be 14700 nM. In addition, in the data set on Plasmodium berghei, the inhibition in vivo at 30 mg/kg turned out to be 41%. Moreover, the selectivity ratio in data set [4] is 18.4; in data set [5] it was 16.3.

In the case of `C[C@@H]1CC[C@H]2[C@@H](C)C(=O)O[C@@H]3O[C@@]4(C)CC[C@@H]1[C@]32OO4` [ARTEMISININ], the 50% inhibitory concentration (IC50) was determined as 22 nM in the data set with Plasmodium falciparum [1] and 26 nM with Plasmodium falciparum [2]. The 50% cytotoxic concentration (CC50) at 24 h in data set [3] was over 25000 nM. Besides, the inhibition in vivo at 30 mg/kg in the data set on Plasmodium berghei came out at 99.7%. Moreover, the selectivity ratio in data set [4] is over 1140; in data set [5], over 961.

Regarding `CC1(C)NC(=O)[C@H](CCCCC[C@@H](O)[C@@H](O)CO)NC(=O)[C@H]2CCCN2C(=O)[C@H](Cc2ccccc2)NC1=O`, the IC50 is 12500 nM in the data set with Plasmodium falciparum [1] and 17100 nM with Plasmodium falciparum [2]. Besides, the 50% cytotoxic concentration (CC50) at 24 h in data set [3] came out at 6800 nM. Besides, the inhibition in vivo at 30 mg/kg in the data set on Plasmodium berghei came to 18.3%. For the same compound, the selectivity ratio in data set [4] turned out to be 0.5; in data set [5], 0.4.

On to `CCC(=O)CCCCC[C@@H]1NC(=O)[C@H]2CCCCN2C(=O)[C@H]([C@@H](C)CC)NC(=O)[C@H](Cc2cn(OC)c3ccccc23)NC1=O` [APICIDIN], for which, in data set [6], the IC50 amounted to 0.7 nM.
